biological target: T1, IL17A (Homo sapiens, UniProt Q16552); assay: Surface Plasmon Resonance (SPR) analysis of compound interactions with IL17A; conditions: SPR binding to IL17A
T1 sequence (Q16552 24-155): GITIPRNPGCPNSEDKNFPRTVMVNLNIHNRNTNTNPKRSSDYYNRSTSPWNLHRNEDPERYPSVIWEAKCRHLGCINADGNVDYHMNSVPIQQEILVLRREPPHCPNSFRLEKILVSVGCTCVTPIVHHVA
Description: SPR analysis was carried out with a GE Healthcare (Piscataway, N.J.) Biacore X100 system. Typically, the chip (NTA Biacore Biosensor chip; GE Healthcare BR-1000-34) was first conditioned by injection of 0.35 M EDTA, which also served to remove any immobilized proteins from previous runs. Before immobilization of the recombinant 6-His-tagged IL17, the chip was washed with 0.5 mM nickel chloride in NTA buffer (10 mM HEPES buffer, 0.15 M sodium chloride, 10 μM ethylene diamine tetraacetic acid, 0.005% v/v surfactant P20 (GE Healthcare BR-1000-54)) to form a nickel chelate on the chip. IL17 protein was immobilized onto a NTA chip through its 6-His tag. IL17A was typically injected at 0.25 μM for 60-120 seconds, followed by a stabilization step washing with NTA+0.5% DMSO for 120 seconds or longer.
Five 2-fold or 3-fold serial dilutions of test compound were injected serially onto the chip. All steps were conducted using NTA buffer containing 0.5% v/v dimethylsulfoxide (DMSO). Compounds were diluted from stock solutions of 10 mM concentration in 100% DMSO with NTA buffer to obtain 50 μM solutions in NTA+0.5% DMSO. Subsequent 2× or 3× dilutions were made in NTA+0.5% DMSO. Compound was generally injected for 180 seconds followed by washing the chip in buffer alone for 120 seconds. The rate of refractive index change (RU units/time) and the maximum extend of RU change was measured during the “on” phase of analyte injection, followed by measuring the rate during the “off” phase.
Kinetic parameter fits were conducted using the Biacore SPR Evaluation Program (GE Healthcare) for 1:1 molecular binding fits, after subtracting the baseline average of 2 or more runs in which no analyte was injected. This program then reports the best fit average for the “on” rate (Ka), the “off” rate (Kd) and the dissociation constant (KD) (Chaiken, I et al., Anal Biochem 201, 197-210 (1992)). A separate program in the Biacore SPR Evaluation Program then calculates the best fit for Kd based upon the extent of binding alone (RU units bound) at each concentration of analyte and reports the best fit Kd by best fit to a Lineweaver-Burke plot. Typically, the Kd value calculated through both means agreed within a factor of three.
The presence and activity of IL17 on the NTA chip was routinely confirmed three ways: • 1) An increase in response units (RU) upon immobilization confirms that the IL17 was immobilized on the chip; • 2) Anti-IL17 was also injected on the chip to confirm the presence of IL17; and • 3) IL17R was injected onto the chip to confirm that the immobilized IL17 retained its binding activity for its receptor. Negative controls to access specificity for compound binding were conducted by immobilizing unrelated, but his-tagged, proteins (such as cyclophilin D) and conducting the same analysis as done with IL17A.

`O=C1CCCNC(=O)[C@@H](Cc2ccc(NC(=O)[C@H](Cc3ccc(-c4ccccc4)cc3)NC(=O)c3ccccc3)cc2)NC(=O)CC2(CCCC2)CC(=O)N[C@H](C(=O)O)CCCCN1` [Compound 178] and `COC(=O)[C@@H]1CCCCNC(=O)CCCNC(=O)[C@@H](Cc2ccc(NC(=O)[C@H](Cc3ccc(-c4ccccc4)cc3)NC(=O)c3ccccc3)cc2)NC(=O)CC2(CCCC2)CC(=O)N1` [Compound 125] fall in the same range of Kd: 100 to 1000 nM for the first, 100 to 1000 nM for the second.

`O=C1CCCNC(=O)[C@@H](Cc2ccc(NC(=O)[C@H](Cc3ccccc3Cl)NC(=O)Cc3ccccc3)cc2)NC(=O)CC2(CCCC2)CC(=O)NCCCCCN1` [Compound 161] and `O=C1CCCNC(=O)[C@@H](Cc2ccc(NC(=O)[C@H](Cc3ccccc3Cl)NC(=O)Cc3ccccc3)cc2)NC(=O)CC2(CCCC2)CC(=O)NCCCCN1` [Compound 166] cannot be ordered by Kd: less than 100 nM for the first, less than 100 nM for the second.

First: COC(=O)[C@@H]1CCCCNC(=O)CCCNC(=O)[C@H](Cc2ccc(NC(=O)[C@H](Cc3ccccc3F)NC(=O)c3ccccc3)cc2)NC(=O)CC2(CCCC2)CC(=O)N1 [Compound 137]
Second: COC(=O)[C@H]1CCCCNC(=O)CCCNC(=O)[C@@H](Cc2ccc(NC(=O)[C@H](Cc3ccccc3F)NC(=O)c3ccccc3)cc2)NC(=O)CC2(CCCC2)CC(=O)N1 [Compound 136]
The Kd of the first is higher: 100 to 1000 nM for the first, less than 100 nM for the second. The second binds more tightly here.

`COC(=O)[C@@H]1CCCCNC(=O)CCCNC(=O)[C@@H](Cc2ccc(NC(=O)[C@H](Cc3ccc(F)cc3)NC(=O)c3ccccc3)cc2)NC(=O)CC2(CCCC2)CC(=O)N1` [Compound 119] and `COC(=O)[C@@H]1CCCCNC(=O)CCCNC(=O)[C@@H](Cc2ccc(NC(=O)[C@H](Cc3cccc(F)c3)NC(=O)c3ccccc3)cc2)NC(=O)CC2(CCCC2)CC(=O)N1` [Compound 117] fall in the same range of Kd: 100 to 1000 nM for the first, 100 to 1000 nM for the second.

First: COC(=O)[C@H]1CCCCNC(=O)CCCNC(=O)[C@H](Cc2ccc(NC(=O)[C@H](Cc3ccccc3)NC(=O)Cc3ccccc3)cc2)NC(=O)CC2(CCCC2)CC(=O)N1 [Compound 104]
Second: COC(=O)[C@H]1CCCCNC(=O)CCCNC(=O)[C@@H](Cc2ccc(NC(=O)[C@H](Cc3ccccc3)NC(=O)Cc3ccccc3)cc2)NC(=O)CC2(CCCC2)CC(=O)N1 [Compound 138]
The Kd of the first is higher: 1000 to 10000 nM for the first, 100 to 1000 nM for the second. The second binds more tightly here.

First: O=C1CC2(CCCC2)CC(=O)N[C@@H](C(=O)O)CCCCNC(=O)[C@H](Cc2ccc(NC(=O)[C@H](Cc3ccccc3F)NC(=O)Cc3ccccc3)cc2)N1 [Compound 102]
Second: O=C1CCCNC(=O)[C@@H](Cc2ccc(NC(=O)[C@H](Cc3ccccc3F)NC(=O)Cc3ccccc3)cc2)NC(=O)CC2(CCCC2)CC(=O)N[C@H](C(=O)O)CCCCN1 [Compound 175]
The Kd of the first is higher: greater than 10000 nM for the first, 100 to 1000 nM for the second. The second binds more tightly here.

`O=C1CCNC(=O)[C@@H](Cc2ccc(NC(=O)[C@H](Cc3ccccc3Cl)NC(=O)Cc3ccccc3)cc2)NC(=O)CC2(CCCC2)CC(=O)N(CCO)CCCCCN1` [Compound 170] and `CC(=O)N[C@@H](Cc1ccccc1Cl)C(=O)Nc1ccc(C[C@H]2NC(=O)CC3(CCCC3)CC(=O)N(CCO)CCCCCNC(=O)CCCNC2=O)cc1` [Compound 173] cannot be ordered by Kd: less than 100 nM for the first, less than 100 nM for the second.

First: O=C1CNC(=O)[C@@H](Cc2ccc(NC(=O)[C@H](Cc3ccc(O)cc3)NC(=O)Cc3ccc(O)cc3)cc2)NC(=O)CC2(CCCC2)CC(=O)NCCCCCN1 [Compound 189]
Second: O=C1CNC(=O)[C@@H](Cc2ccc(NC(=O)[C@H](Cc3c(F)cccc3F)NC(=O)Cc3ccc(O)cc3)cc2)NC(=O)CC2(CCCC2)CC(=O)NCCCCCN1 [Compound 190]
The Kd of the first is lower: less than 100 nM for the first, 100 to 1000 nM for the second. The first binds more tightly here.

First: COC(=O)[C@H]1CCCCNC(=O)CNC(=O)[C@@H](Cc2ccc(NC(=O)[C@H](Cc3ccccc3F)NC(=O)Cc3ccccc3)cc2)NC(=O)CC2(CCCC2)CC(=O)N1 [Compound 149]
Second: COC(=O)[C@H]1CCCCNC(=O)CCCNC(=O)[C@H](Cc2ccc(NC(=O)[C@H](Cc3ccccc3F)NC(=O)Cc3ccccc3)cc2)NC(=O)CC2(CCCC2)CC(=O)N1 [Compound 101]
The Kd of the first is lower: less than 100 nM for the first, 1000 to 10000 nM for the second.

Compared with `CC(=O)N[C@@H](Cc1ccccc1Cl)C(=O)Nc1ccc(C[C@H]2NC(=O)CC3(CCCC3)CC(=O)NCCCNC(=O)CNC2=O)cc1` [Compound 152], `CC(=O)N[C@@H](Cc1ccccc1Cl)C(=O)Nc1ccc(C[C@H]2NC(=O)CC3(CCCC3)CC(=O)NCCCCNC(=O)CNC2=O)cc1` [Compound 163] is lower in Kd: 100 to 1000 nM for the first, less than 100 nM for the second.

`COC(=O)[C@@H]1CCCCNC(=O)CCCNC(=O)[C@@H](Cc2ccc(NC(=O)[C@H](Cc3ccc(-c4ccccc4)cc3)NC(=O)Cc3ccccc3)cc2)NC(=O)CC2(CCCC2)CC(=O)N1` [Compound 124] and `COC(=O)[C@@H]1CCCCNC(=O)CCCNC(=O)[C@@H](Cc2ccc(NC(=O)[C@H](Cc3ccccc3)NC(=O)Cc3ccccc3)cc2)NC(=O)CC2(CCCC2)CC(=O)N1` [Compound 114] fall in the same range of Kd: 100 to 1000 nM for the first, 100 to 1000 nM for the second.

`COC(=O)[C@H]1CCCCNC(=O)C(C)(C)NC(=O)[C@@H](Cc2ccc(NC(=O)[C@H](Cc3ccccc3Cl)NC(=O)Cc3ccccc3)cc2)NC(=O)CC2(CCCC2)CC(=O)N1` [Compound 145] and `O=C1CNC(=O)[C@@H](Cc2ccc(NC(=O)[C@H](Cc3ccccc3Cl)NC(=O)Cc3ccccc3)cc2)NC(=O)CC2(CCCC2)CC(=O)NCCCCN1` [Compound 162] cannot be ordered by Kd: less than 100 nM for the first, less than 100 nM for the second.

`COC(=O)[C@@H]1CCCCNC(=O)CCCNC(=O)[C@@H](Cc2ccc(NC(=O)[C@H](Cc3ccccc3)NC(=O)Cc3ccc(C(F)(F)F)cc3)cc2)NC(=O)CC2(CCCC2)CC(=O)N1` [Compound 140] and `COC(=O)[C@@H]1CCCCNC(=O)CCCNC(=O)[C@@H](Cc2ccc(NC(=O)[C@H](Cc3ccccc3)NC(=O)c3ccccc3)cc2)NC(=O)CC2(CCCC2)CC(=O)N1` [Compound 115] fall in the same range of Kd: 100 to 1000 nM for the first, 100 to 1000 nM for the second.

First: O=C1CCCNC(=O)[C@@H](Cc2ccc(NC(=O)[C@H](Cc3ccccc3F)NC(=O)Cc3ccccc3)cc2)NC(=O)CC2(CCCC2)CC(=O)N[C@@H](C(=O)O)CCCCN1 [Compound 176]
Second: O=C1CCCNC(=O)[C@H](Cc2ccc(NC(=O)[C@H](Cc3ccccc3F)NC(=O)Cc3ccccc3)cc2)NC(=O)CC2(CCCC2)CC(=O)N[C@@H](C(=O)O)CCCCN1 [Compound 103]
The Kd of the first is lower: 100 to 1000 nM for the first, greater than 10000 nM for the second. The first binds more tightly here.

`O=C1CNC(=O)[C@@H](Cc2ccc(NC(=O)[C@H](Cc3ccc(Cl)cc3Cl)NC(=O)Cc3ccccc3)cc2)NC(=O)CC2(CCCC2)CC(=O)NCCOCCN1` [Compound 210] and `O=C1CNC(=O)[C@@H](Cc2ccc(NC(=O)[C@H](Cc3ccccc3Cl)NC(=O)c3ccc(O)cc3)cc2)NC(=O)CC2(CCCC2)CC(=O)NCCCCCN1` [Compound 215] cannot be ordered by Kd: less than 100 nM for the first, less than 100 nM for the second.

`CC(=O)N[C@@H](Cc1ccccc1Cl)C(=O)Nc1ccc(C[C@H]2NC(=O)CC3(CCCC3)CC(=O)NCCCCNC(=O)CCNC2=O)cc1` [Compound 165] and `O=C1CNC(=O)[C@@H](Cc2ccc(NC(=O)[C@H](Cc3ccccc3Cl)NC(=O)c3ccncc3)cc2)NC(=O)CC2(CCCC2)CC(=O)NCCCCCN1` [Compound 208] cannot be ordered by Kd: less than 100 nM for the first, less than 100 nM for the second.

`COC(=O)[C@@H]1CCCCNC(=O)CCCNC(=O)[C@@H](Cc2ccc(NC(=O)[C@H](Cc3ccccc3Br)NC(=O)c3ccccc3)cc2)NC(=O)CC2(CCCC2)CC(=O)N1` [Compound 121] and `COC(=O)[C@@H]1CCCCNC(=O)CCCNC(=O)[C@@H](Cc2ccc(NC(=O)[C@H](Cc3ccccc3C)NC(=O)c3ccccc3)cc2)NC(=O)CC2(CCCC2)CC(=O)N1` [Compound 127] fall in the same range of Kd: 100 to 1000 nM for the first, 100 to 1000 nM for the second.

In the case of `CC[C@H](C)[C@H](NC(=O)c1ccccc1)C(=O)Nc1ccc(C[C@H]2NC(=O)CC3(CCCC3)CC(=O)N[C@H](C(=O)OC)CCCCNC(=O)CCCNC2=O)cc1` [Compound 123], the Kd is reported as 1000 to 10000 nM.
